Experimental data published in patent US9951058B2, “Compound, pharmaceutically acceptable salt or optical isomer thereof, method for preparing the same, and pharmaceutical composition for prevention or treatment of viral diseases containing same as active ingredient” (Korea Research Institute of Chemical Technology, priority 2012, dated 2018).
In brackets after ≈: the same amount, converted by molar mass. Like-named read-outs stand apart in the source and are kept apart here.

Columns and labels:
[1] = test system: 48 rhinovirus types and coxsackievirus A21, B3, enterovirus 70 and echovirus 11; conditions: Pattick et al. 1999; cited from earlier work
[2] = cited from earlier work; for therapeutic effect: clinical
[3] = Cytotoxicity (CC50) in mock-infected cells, CPE inhibition assay, MTT; conditions: human
[4] = Cytotoxicity (CC50) in multicycle CPE reduction assay, MTS; conditions: human
[5] = test system: coxsackievirus B1 (Cox B1); experiment: Multicycle cytopathic effect (CPE) reduction assay; format: cell-based; conditions: for EC50: Enterovirus B, B1, 72 h, read-out: EC50 CoxB1; for EC50 CoxB1: 100 CCID50, MTS, 37° C., 3 days
[6] = test system: HRV 21; experiment: Cytopathic effect (CPE) inhibition assay; format: cell-based, human rhinovirus; conditions: for EC50: Human rhinovirus sp., 72 h, read-out: EC50 HRV 21
[7] = test system: HRV 71; experiment: Cytopathic effect (CPE) inhibition assay; format: cell-based, human rhinovirus; conditions: for EC50: Human rhinovirus sp., 72 h, read-out: EC50 HRV 71
[8] = test system: coxsackievirus B3 (Cox B3); experiment: Multicycle cytopathic effect (CPE) reduction assay; format: cell-based; conditions: for EC50: Enterovirus B, B3, 72 h, read-out: EC50 CoxB3; for EC50 CoxB3: 100 CCID50, MTS, 37° C., 3 days
[9] = test system: poliovirus 3 (PV3); experiment: microbe, parasite or virus in culture; format: cell-based; conditions: for EC50: Enterovirus C, 72 h, read-out: EC50 PV3; for EC50 PV3: 100 CCID50, MTS, 37° C., 3 days
[10] = test system: HRV 14; experiment: Cytopathic effect (CPE) inhibition assay; format: cell-based, human rhinovirus; conditions: for EC50: Human rhinovirus sp., HeLa, 72 h, read-out: EC50 HRV 14
[11] = test system: HeLa (human cervical cancer cells)
[12] = test system: HeLa; experiment: Cytotoxicity (CC50) in multicycle CPE reduction assay, MTS; conditions: Table 4; MTS, 37° C., 3 days
[13] = in vitro; conditions: human
[14] = in vivo, cited from earlier work
[15] = test system: rhinoviruses and enteroviruses; conditions: cited from earlier work
[16] = test system: HeLa (human cervical cancer cells); experiment: Cytotoxicity (CC50) in mock-infected cells, CPE inhibition assay, MTT; conditions: Table 3; mock-infected cells, MTT assay, 2-3 days
[17] = host cell HeLa, 3 days, MEM/2% FBS, MTT assay

For `CCOC(=O)/C=C/[C@H](C[C@@H]1CCNC1=O)NC(=O)[C@@H](CC(=O)[C@@H](NC(=O)c1cc(C)on1)C(C)C)Cc1ccc(F)cc1` [AG 7088], the “concentration range of effect in the cell culture” value [1] is listed as “nanomolar concentration range”.

For `CC(C)S(=O)(=O)n1c(N)nc2ccc(/C(=N/O)c3ccccc3)cc21` [Enviroxime], the therapeutic effect [2] is listed as “few or no therapeutic effects”, the pharmacokinetics ([2]; in vivo) is listed as “insufficient pharmacokinetics” and the side effects ([2]; in vivo) is listed as “unwanted side effects”.

`CC(C)c1ccc2c(c1)OC1(O)c3c(cccc3[N+](=O)[O-])C(=O)C21NC(=O)C(=O)Cc1ccccc1[N+](=O)[O-]` (stereo not shown) [Example 25, N-(4b-hydroxy-7-isopropyl-4-nitro-10-oxo-4b, 10-dihydro-9bH-indeno[1,2-b]benzofuran-9b-yl)-3-(2-nitrophenyl)-2-oxo propanamide] gave a CC50 [3] of 2.6 µg/mL (≈ 4.89 µM), a CC50 at 3 days [4] of 9.5 µg/mL (≈ 17.9 µM) and an EC50 [5] of less than 1 µg/mL. For the same molecule, the EC50 ([6]; HeLa) was greater than 2.6 µg/mL, the EC50 ([7]; HeLa) was greater than 2.6 µg/mL and the EC50 [8] was less than 1 µg/mL. For the same molecule, the EC50 [9] was greater than 9.5 µg/mL and the EC50 [10] was greater than 2.6 µg/mL.

With `CC(C)c1ccc2c(c1)OC1(O)c3ccccc3C(=O)C21NC(=O)CCC(=O)O` (stereo not shown) [Example 57, 4-((4b-hydroxy-7-isopropyl-10-oxo-4b, 10-dihydro-9bH-indeno[1,2-b]benzofuran-9b-yl)amino)-4-oxo butanoic acid] the “CC50 Cytotoxicity” value [11] was greater than 10.0 µg/mL, the “CC50 Cytotoxicity” value [12] was greater than 10.0 µg/mL and the “EC50 CoxB1” value [5] was less than 1.0 µg/mL. For the same molecule, the “EC50 HRV 21” value [6, 17] was greater than 10.0 µg/mL, the “EC50 HRV 71” value [7, 17] was greater than 10.0 µg/mL and the “EC50 CoxB3” value [8] was less than 1.0 µg/mL. The “EC50 PV3” value [9] was greater than 10.0 µg/mL and the “EC50 HRV 14” value [10, 17] was less than 10.0 µg/mL.

`CC(C)c1ccc2c(c1)OC1(O)c3ccccc3C(=O)C21NC(=O)CN` (stereo not shown) [Example 64, 2-amino-N-(4b-hydroxy-7-isopropyl-10-oxo-4b, 10-dihydro-9bH-indeno[1,2-b]benzofuran-9b-yl)acetamide] gave a CC50 [13] greater than 10 µg/mL, a CC50 at 3 days [4] greater than 10 µg/mL and an EC50 [5] of less than 0.1 µg/mL. It also gave an EC50 [6, 17] greater than 10 µg/mL, an EC50 [7, 17] greater than 10 µg/mL and an EC50 [8] of less than 0.1 µg/mL. It also gave an EC50 [9] greater than 10 µg/mL and an EC50 [10, 17] of less than 10 µg/mL.

In the case of `Cc1cc(CCCOc2c(C)cc(-c3noc(C(F)(F)F)n3)cc2C)on1` [Pleconaril], the therapeutic effect [2] is listed as “therapy success was too low”, the side effects ([2]; in vivo) is listed as “side effects were observed” and the oral bioavailability ([14]; po) is listed as “very good oral bioavailability”.

For `Cc1cc(CCCCCOc2c(Cl)cc(C3=NCCO3)cc2Cl)on1` [WIN 54954], the side effects ([2]; in vivo) is given as “skin rash” and the metabolization and excretion [14] is given as “rapid metabolization and excretion”.

In the case of `CCC(=O)C(CCCCCCOc1ccc(OC)cc1Cl)C(=O)CC` [arildone], the bioavailability [14] is given as “low bioavailability” and the “antiviral effects in the cell culture” value [15] is given as “very good antiviral effects”.

In the case of `Cc1cc(CCCCCCCOc2ccc(C3=NCCO3)cc2)on1` [disoxaril], the bioavailability [14] is listed as “low bioavailability”, the metabolization and excretion [14] is listed as “rapid metabolization and excretion” and the “antiviral effects in the cell culture” value [15] is listed as “very good antiviral effects”.

In the case of `CCOC(=O)c1ccc(OCCC2CCN(c3ccc(C)nn3)CC2)cc1` [pirodavir], the “antiviral effects in the cell culture” value [15] is listed as “very good antiviral effects”.

For “N-(1-amino-4b-hydroxy-7-isopropyl-10-oxo-4b, 10-dihydro-9bH-indeno[1,2-b]benzofuran-9b-yl)-2-oxo hexanamide [Example 50]”, the “CC50 Cytotoxicity” value [16] was greater than 10.0 µg/mL, the “CC50 Cytotoxicity” value [12] was greater than 10.0 µg/mL and the “EC50 CoxB1” value [5] was less than 0.1 µg/mL. The “EC50 HRV 21” value [6, 17] was greater than 10.0 µg/mL, the “EC50 HRV 71” value [7, 17] was greater than 10.0 µg/mL and the “EC50 CoxB3” value [8] was less than 0.1 µg/mL. For the same molecule, the “EC50 PV3” value [9] was less than 1.0 µg/mL and the “EC50 HRV 14” value [10, 17] was less than 0.1 µg/mL.

With “N-(4b-hydroxy-7-isopropyl-4-nitro-10-oxo-4b, 10-dihydro-9bH-indeno[1,2-b]benzofuran-9b-yl)-2-oxo-4-phenyl butanamide [Example 59]” the “CC50 Cytotoxicity” value [16] was 8.6 µg/mL, the “CC50 Cytotoxicity” value [12] was greater than 10.0 µg/mL and the “EC50 CoxB1” value [5] was less than 0.1 µg/mL. The “EC50 HRV 21” value [6, 17] was greater than 8.6 µg/mL, the “EC50 HRV 71” value [7, 17] was greater than 8.6 µg/mL and the “EC50 CoxB3” value [8] was less than 0.1 µg/mL. The “EC50 PV3” value [9] was less than 0.1 µg/mL and the “EC50 HRV 14” value [10, 17] was less than 0.1 µg/mL.
